The values that follow come from US11884750B2, “Cationic cell penetrating peptides and the use thereof” (CELLTROY CO., LTD., priority 2021, dated 2024).

For one assay, the system named is monocytes. As to the kind of experiment: Cell penetration efficiency using monocytes. It counts as cell-based. Conditions: 4 μM FITC-conjugated CPP, one hour. An outline of the steps: (§1)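 Cells were grown 24 h at 37 °C in 10% FBS medium, then exposed to 4 μM FITC-labelled CPP or FITC-TAT for 1 h. After trypsinization and washing, intracellular fluorescence was measured by flow cytometry.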

A further assay deals with HGB cell line. As to the kind of experiment: Cell penetration efficiency in glioblastoma cells. It counts as cell-based, human. Particulars: 4 μM FITC-conjugated CPP, one hour. An outline of the steps: as §1
Another assay concerns macrophages. As to the kind of experiment: Cell penetration efficiency using macrophages. It counts as cell-based. Particulars: macrophages differentiated from THP1 cells, 4 μM FITC-conjugated CPP, one hour.
The next assay deals with HaCAT cells. As to the kind of experiment: Cell penetration efficiency in human epidermal (skin) cells, 4 μM, flow cytometry. Particulars: 4 μM FITC-conjugated CPP, one hour. It counts as cell-based. The gist of the method: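 HaCAT cells […] were grown 24 h in DMEM with 10% FBS at 37 °C, then treated 1 h with 4 μM FITC-conjugated peptide or FITC-TAT. Cells were trypsinised and washed in D-PBS. Intracellular fluorescence was read by flow cytometry.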
A general note: In flow cytometry, cells or beads pass a laser one at a time.

In the next assay the test system is HepG2 cell line. As to the kind of experiment: Cell penetration efficiency using liver cells. Particulars: 4 μM FITC-conjugated CPP, one hour. It counts as cell-based. How it is done: Subsequently, to confirm whether the CPPs according to the present invention show excellent cell permeability into different types of cells/tissues, various tissue-derived cells were treated with biologically active molecule-conjugated CPPs to compare its delivery capacity with TAT. As in the previous examples, each cell was aliquoted in a plate at an appropriate density, and cultured in a 10% FBS-added medium under a condition of 37° C. and 5% CO2 for 24 hours. Subsequently, the cells were treated with 4 μM each of FITC-conjugated CPP or FITC-conjugated TAT and incubated for one hour. After the completion of the incubation, the cells were transferred to a sterile tube using 0.25% trypsin and centrifuged to remove the medium. Afterward, the cells were washed with 500 μL of D-PBS twice to completely remove the medium, and finally, resuspended in 400 μL of D-PBS and intracellular fluorescence was measured by flow cytometry (FACSCanto II).

For another assay, the system named is HT1080 cell line. As to the kind of experiment: Cell penetration efficiency using connective tissue (fibrosarcoma) cells. It counts as cell-based. Particulars: 4 μM FITC-conjugated CPP, one hour. The gist of the method:
as §1

The next assay relates to SNU-46 cell line. As to the kind of experiment: Cell penetration efficiency using laryngeal cells. Particulars: SNU-46 laryngeal cells, 4 μM FITC-conjugated CPP, one hour. It counts as cell-based. The gist of the method:
as §1

Another assay concerns A-427 cell line. As to the kind of experiment: Cell penetration efficiency using lung cells. It counts as cell-based. Particulars: A-427 lung cells, 4 μM FITC-conjugated CPP, one hour. An outline of the steps: as §1
The next assay concerns SH-SY5Y cells. As to the kind of experiment: Cell penetration efficiency in human neuroblastoma cells, 4 μM, flow cytometry. It counts as cell-based. Particulars: one hour. An outline of the steps:
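SH-SY5Y cells cultured 24 h in DMEM/10% FBS at 37 °C, 5% CO2, then exposed to 4 μM FITC-conjugated peptide (FITC-TAT as reference) for 1 h. After trypsinisation and D-PBS washes, intracellular fluorescence measured by flow cytometry.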

The next assay has as its system HDF cell line. As to the kind of experiment: Cell penetration efficiency in skin cells (HDF). Format: cell-based. Particulars: 4 μM FITC-conjugated CPP, one hour. The gist of the method: as §1
A further assay deals with HeLa cell line. As to the kind of experiment: Cell penetration efficiency using cervical cancer cells. It counts as cell-based. Particulars: 4 μM FITC-conjugated CPP, one hour. The gist of the method:
as §1

Another assay has as its system HEK293T cell line. As to the kind of experiment: Cell penetration efficiency using kidney cells. Format: cell-based. Particulars: 4 μM FITC-conjugated CPP, one hour. An outline of the steps:
as §1

For the sequence LVPRRLRRRARRRK [C179], the “cell permeability compared with TAT” value with monocytes, in the assay on HGB cell line, in the assay on macrophages, in the assay on HaCAT cells, in the assay on HepG2 cell line and with HT1080 cell line was “higher cell permeability” throughout. Besides, the “cell permeability compared with TAT” value with SNU-46 cell line was “higher cell permeability”; with A-427 cell line, “higher cell permeability”; in the assay with SH-SY5Y cells (4 μM FITC-conjugated CPP, flow cytometry) it was “higher cell permeability”; in the assay on HDF cell line it was “higher cell permeability”; in the assay with HeLa cell line, “higher cell permeability”; in the assay with HEK293T cell line, “higher cell permeability”. Also, the Score in the assay on SH-SY5Y cells (4 μM FITC-conjugated peptide, intracellular fluorescence by flow cytometry) is on record as 2076. The Score/TAT with SH-SY5Y cells (4 μM FITC-conjugated peptide, ratio to FITC-conjugated TAT) is on record as 4.000.
